Measured values as given in patent publication US20060083657A1, “Indicator device having an active agent encapsulated in an electrospun nanofiber” (STERIS Inc., priority 2004, published 2006).

Tests used:
[1] = test system: Staphylococcus aureus ATCC 6538; experiment: Disk diffusion method, zone of inhibition on lawn plates; format: cell-based; settings: polymer mat disk, 37° C., 7 days
Procedure: (§1) The effectiveness of the CHG polymer mat was investigated using a disk diffusion method on Staphylococcus aureus ATCC 6538 and Escherichia coli ATCC 25922 lawn plates. The plates were prepared for each organism by dispensing and spreading 0.1 mL of the bacterium over the entire surface of prepared tryptic soy agar plates to create a “lawn.” Concentrations of chlorhexidine gluconate (CHG) at 0.25%, 0.5%, and 1.0% were electrospun with Tecoflex to produce an antimicrobial polymer mat. The polymer mats were cut into two 0.5-1.0 inch diameter disks for each CHG concentration. One disk per plate was placed into the center of the bacterial plate The plates were then incubated at 37° C. for 7 days to determine the zone of inhibition or antimicrobial coverage around the disk (measured in millimeters diameter), which simulates the persistence of an antimicrobial dressing to inactivate resident microorganisms on the skin. For S. aureus, 0.25%, 0.50%, and 1.0% CHG was effective showing mean zones of 20 mm, 25 mm, and 25 mm zones, respectively at 7 days, while at the same concentrations E. coli mean zones were 11 mm, 23 mm, and 28 mm.

[2] = test system: Escherichia coli ATCC 25922; experiment: as above; format: cell-based; settings: polymer mat disk, 37° C., 7 days
Procedure: as §1

[3] = 0.25% CHG electrospun with Tecoflex
[4] = 0.50% CHG electrospun with Tecoflex
[5] = 1.0% CHG electrospun with Tecoflex

Question: Which “mean zone of inhibition (diameter)” value [1, 3] does the source give for `N=C(NCCCCCCNC(=N)NC(=N)Nc1ccc(Cl)cc1)NC(=N)Nc1ccc(Cl)cc1.O=C(O)[C@H](O)[C@@H](O)[C@H](O)[C@H](O)CO.O=C(O)[C@H](O)[C@@H](O)[C@H](O)[C@H](O)CO` [CHG, Chlorhexidine Gluconate] here?
Answer: Its value is 20 mm.

Question: And the “mean zone of inhibition (diameter)” value [1, 4]?
Answer: Its value is 25 mm.

Question: What about the “mean zone of inhibition (diameter)” value [1, 5] of the same compound?
Answer: The value was 25 mm.

Question: What about the “mean zone of inhibition (diameter)” value [2, 3] of the same compound?
Answer: The value was 11 mm.

Question: What about the “mean zone of inhibition (diameter)” value [2, 4] of the same compound?
Answer: The value was 23 mm.

Question: What about the “mean zone of inhibition (diameter)” value [2, 5] of the same compound?
Answer: The value was 28 mm.
